Consider 61 compounds from the supplement of paper PMC6723410.

Experiment [1] concerns GUMC-403. The experiment in a line: viability at highest tested concentration (max response) relative to DMSO (% of DMSO control); higher = less cytotoxic. The note with it: library / dose series: MIPE library, 11-point 1:3 dilution; top concentration 46.1 µM; 48 h. The procedure, abridged:
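The value is viability at the highest tested concentration, expressed relative to vehicle control. Patient-derived GUMC-403 papilloma cells, grown by conditional reprogramming, were seeded at 700/well in 5 μL F + Y medium in 1536-well plates. After an overnight incubation at 37 °C, they received 23 nL of compound by pin tool for 48 h. Readout was CellTiter-Glo luminescence on a ViewLux, normalised to vehicle wells (100%) and empty wells (0%).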

Experiment [2] has as its system GUMC-403. The experiment in a line: AC50 for reduction of cell viability; higher = less potent. To be noted: 48 h.
Setting [3] is: library / dose series: MIPE library, 11-point 1:3 dilution.
[4] abbreviates: library / dose series: NPC library, 8-point 1:5 dilution.

`CC[S+](=O)([O-])c1cccc(-c2cc(C(=O)NC3CCN(C)CC3)c(C)c3[nH]c4ncc(C)cc4c23)c1` showed a viability in the experiment with GUMC-403 [1] of 75.8. Also, in the experiment on GUMC-403 [2] (setting [3]), the “AC50 for reduction of cell viability” value was determined as 4.69 µM. `CC(C)C[C@H](NC(=O)[C@@H](NC(=O)c1cccc(-c2ccccc2)n1)[C@@H](C)O)B(O)O` yielded a viability in the experiment on GUMC-403 [1] of 26.3. Besides, the “AC50 for reduction of cell viability” value in the experiment with GUMC-403 [2] (setting [3]) was 1.87 µM. Taken in the same sequence, the figures for `CN(C)c1ccc(C(=O)NCCCCCCC(=O)NO)cc1` were 33.9 and 18.7 µM. Taken in the same sequence, the figures for `CC(C)C[C@@H](C=O)NC(=O)[C@H](CC(C)C)NC(=O)[C@H](CC(C)C)NC(=O)OCc1ccccc1` were 9.05 and 10.5 µM.

Consider `COc1cccc2c1C(=O)c1c(O)c3c(c(O)c1C2=O)C[C@@](O)(C(=O)CO)C[C@@H]3O[C@H]1C[C@H](N)[C@H](O)[C@H](C)O1`, for which, in the experiment with GUMC-403 [1], the viability came to 34.7. Moreover, the “AC50 for reduction of cell viability” value in the experiment on GUMC-403 [2] (setting [3]) stood at 1.87 µM. Taken in the same sequence, the figures for `C[C@@]12C(=O)OC(=O)[C@@]1(C)C1CCC2O1` were 21.1 and 5.9 µM. `ClC1=CC\2=C(NC(=O)\C(=C2N[C@@H]3CN4CCC3CC4)C5=NC6=C([NH]5)C=CC=C6)C=C1` had a viability in the experiment on GUMC-403 [1] of 16.4. Also, in the experiment on GUMC-403 [2] (setting [3]), the “AC50 for reduction of cell viability” value was 3.32 µM. In turn, `CCCCN1CCC(CNC(=O)c2c3n(c4ccccc24)CCCO3)CC1` displayed a viability with GUMC-403 [1] of 23.8. For the same compound, the “AC50 for reduction of cell viability” value in the experiment on GUMC-403 [2] (setting [3]) is 16.6 µM.

`COc1cc2nc(-c3ccc(N4CCN(C)CC4)cc3)nc(NCCN3CCOCC3)c2cc1OC`: the viability in the experiment on GUMC-403 [1] came to 48.5. Further, in the experiment with GUMC-403 [2] (setting [3]), the “AC50 for reduction of cell viability” value amounted to 1.05 µM. The like results for `CC(=O)Nc1ccc([C@H](C)C(=O)Nc2ncc(C(C)C)s2)cc1` were, in that order, 15.9 and 1.66 µM. The like results for `Cc1nc2cnc3ccc(C#Cc4cccnc4)cc3c2n1-c1ccc(C(C)(C)C#N)cc1` were, in that order, 46.6 and 0.0935 µM. As for `CC(C)CC(=O)Nc1n[nH]c2c1CN(C(=O)C1CCN(C)CC1)C2(C)C`, the viability in the experiment on GUMC-403 [1] came out at 15.9. Moreover, the “AC50 for reduction of cell viability” value in the experiment with GUMC-403 [2] (setting [3]) stood at 1.48 µM. The like results for `COC[C@H]1OC(=O)C2=COC3=C2[C@@]1(C)\C4=C(\[C@@H]5CC[C@H](O)[C@@]5(C)C[C@H]4OC(C)=O)C3=O` were, in that order, 57.4 and 4.18 µM. Regarding `CN[C@@H]1[C@H](O)[C@H](NC)[C@H]2O[C@@]3(O)C(=O)C[C@@H](C)O[C@H]3O[C@@H]2[C@H]1O`, in the experiment on GUMC-403 [1], the viability stood at 13.3. The “AC50 for reduction of cell viability” value in the experiment with GUMC-403 [2] (setting [3]) turned out to be 10.5 µM. Consider `CO[C@@]12[C@H](COC(N)=O)C3=C(C(=O)C(C)=C(N)C3=O)N1C[C@@H]1N[C@@H]12`, for which the “AC50 for reduction of cell viability” value in the experiment with GUMC-403 [2] (setting [4]) is 16.8 µM. For `Cc1cc(OCCOCC[N+](C)(C)Cc2ccccc2)ccc1C(C)(C)CC(C)(C)C.[Cl-]`, the “AC50 for reduction of cell viability” value in the experiment on GUMC-403 [2] (setting [4]) came to 23.7 µM. Same read-out and setting: next, `CN(C)C(=S)SSC(=S)N(C)C`: 18.8 µM. As for `CC(C)C[C@H](NC(=O)[C@H](CCc1ccccc1)NC(=O)CN1CCOCC1)C(=O)N[C@@H](Cc1ccccc1)C(=O)N[C@@H](CC(C)C)C(=O)[C@@]1(C)CO1`, the “AC50 for reduction of cell viability” value in the experiment on GUMC-403 [2] (setting [4]) turned out to be 1.19 µM. On to `CN(C)C(=S)SC(=S)N(C)C`, for which the “AC50 for reduction of cell viability” value in the experiment with GUMC-403 [2] (setting [4]) was determined as 5.31 µM. Same read-out and setting: for `CCCCC(CC)CNC(=N)NC(=N)NCCCCCCNC(=N)NC(=N)NCC(CC)CCCC.Cl.Cl` (stereo not given) the value was 2.66 µM; for `CCCCCCCCCCCCCCCC[N+](C)(C)C.[Br-]`, 21.1 µM. On the same count and under the same terms, for `C/C(C)=C\CNc3ncnc1c3ncn1[C@@H]2O[C@H](CO)[C@@H](O)[C@H]2O` the value was 9.44 µM; for `O=c1[nH]c2ccccc2n1C1CCN(CCCC(c2ccc(F)cc2)c2ccc(F)cc2)CC1`, 2.66 µM. Turning to `CCN(CC)CCNc1ccc(CO)c2sc3ccccc3c(=O)c12`, in the experiment on GUMC-403 [2] (setting [4]), the “AC50 for reduction of cell viability” value was 26.6 µM. Regarding `CC[P](CC)(CC)=[Au][S][C@@H]1O[C@H](COC(C)=O)[C@@H](OC(C)=O)[C@H](OC(C)=O)[C@H]1OC(C)=O`, in the experiment with GUMC-403 [2] (setting [3]), the “AC50 for reduction of cell viability” value was found to be 9.35 µM. Turning to `COc1cc2ncnc(Nc3ccc(F)c(Cl)c3)c2cc1OCCCN1CCOCC1`, the “AC50 for reduction of cell viability” value in the experiment with GUMC-403 [2] (setting [4]) was 1.19 µM.

Consider `CCCCCCCCCCCC[N+](C)(C)CCOc1ccccc1.[Br-]`, for which the “AC50 for reduction of cell viability” value in the experiment with GUMC-403 [2] (setting [4]) turned out to be 26.6 µM. On to `C#Cc1cccc(Nc2ncnc3cc(OCCOC)c(OCCOC)cc23)c1`, for which, in the experiment with GUMC-403 [2] (setting [4]), the “AC50 for reduction of cell viability” value was determined as 0.106 µM. In the case of `C[C@H]1O[C@@H](O[C@H]2CC[C@@]3(C)[C@H](CC[C@@H]4[C@@H]3C[C@@H](O)[C@]3(C)[C@@H](C5=CC(=O)OC5)CC[C@]43O)C2)C[C@H](O)[C@@H]1O[C@H]1C[C@H](O)[C@H](O[C@H]2C[C@H](O)[C@H](O[C@@H]3O[C@H](CO)[C@@H](O)[C@H](O)[C@H]3O)[C@@H](C)O2)[C@@H](C)O1`, in the experiment on GUMC-403 [2] (setting [4]), the “AC50 for reduction of cell viability” value came to 0.106 µM. On the same count and under the same terms, next, `[Cl-].C/[N+](C)=C1\C=C\C(C=C1)=C(/c2ccc(cc2)N(C)C)c3ccc(cc3)N(C)C`: 13.3 µM; `CC(O)C(=O)O.CCOc1ccc2nc3cc(N)ccc3c(N)c2c1.O`: 18.8 µM. As for `C[n+]1cc2c3c(ccc2c2ccc4cc5c(cc4c21)OCO5)OCO3`, the “AC50 for reduction of cell viability” value in the experiment on GUMC-403 [2] (setting [4]) amounted to 1.3 µM. Still for that read-out and setting: for `C[C@@H]1O[C@@H](O[C@H]2C[C@@H](O)[C@]3(CO)[C@H]4[C@H](O)C[C@]5(C)[C@@H](C6=CC(=O)OC6)CC[C@]5(O)[C@@H]4CC[C@]3(O)C2)[C@H](O)[C@H](O)[C@H]1O` the value was 0.075 µM.

With `CCN(CC)CCCC(C)Nc1c2ccc(Cl)cc2nc2ccc(OC)cc12.Cl.Cl.O.O` (stereo not given), in the experiment on GUMC-403 [2] (setting [4]), the “AC50 for reduction of cell viability” value was found to be 21.1 µM. Same read-out and setting: for `CCOC(=O)[C@@](C)(N)Cc1ccc(O)c(O)c1.Cl` the value was 6.68 µM; for `CC(=O)Oc1ccc(C2(c3ccc(OC(C)=O)cc3)C(=O)Nc3ccccc32)cc1`, 0.841 µM. Same read-out and setting: for `O=C1NCCN1CCN1CCC(c2cn(-c3ccc(F)cc3)c3ccc(Cl)cc23)CC1` the value was 2.66 µM; for `Cc1cc2nc3ccc(N(C)C)cc3[s+]c2cc1N.[Cl-]`, 18.8 µM.

Regarding `COc1cccc2c1C(=O)c1c(O)c3c(c(O)c1C2=O)C[C@@](O)(C(=O)CO)CC3OC1CC(N2CCOC(OC)C2)C(O)C(C)O1` (stereo not given in full), the “AC50 for reduction of cell viability” value in the experiment on GUMC-403 [2] (setting [4]) stood at 0.0211 µM.

Regarding `N=C(N/N=C\c1ccc(Cl)cc1)N/N=C/c1ccc(Cl)cc1`, the “AC50 for reduction of cell viability” value with GUMC-403 [2] (setting [4]) is 8.41 µM. Still for that read-out and setting: next, `C=C[C@@]1(C)CC(=O)[C@]2(O)[C@@]3(C)[C@@H](O)CCC(C)(C)[C@@H]3[C@H](O)[C@H](OC(C)=O)[C@@]2(C)O1`: 1.68 µM; `COc1cccc2c1C(=O)c1c(O)c3c(c(O)c1C2=O)C[C@@](O)(C(C)=O)C[C@@H]3O[C@H]1C[C@H](N)[C@H](O)[C@H](C)O1`: 2.66 µM.

Take `Cc1nc(Nc2ncc(C(=O)Nc3c(C)cccc3Cl)s2)cc(N2CCN(CCO)CC2)n1`: the “AC50 for reduction of cell viability” value in the experiment with GUMC-403 [2] (setting [4]) amounted to 0.0841 µM.

Take `CN(C)c1ccc2nc3ccc(N(C)C)cc3[s+]c2c1.[Cl-]`: the “AC50 for reduction of cell viability” value in the experiment on GUMC-403 [2] (setting [4]) turned out to be 26.6 µM. On the same count and under the same terms, next, `CC[C@H](O)C(C[C@H](C)N(C)C)(c1ccccc1)c1ccccc1.Cl`: 44.1 µM; `Cc1cc(N)c2cc(NC(=O)Nc3ccc4nc(C)cc(N)c4c3)ccc2n1.Cl.Cl`: 3.76 µM; `COc1cccc2c1C(=O)c1c(O)c3c(c(O)c1C2=O)C[C@@](O)(C(=O)CO)C[C@@H]3O[C@H]1C[C@H](N)[C@H](O)[C@H](C)O1.Cl`: 11.9 µM. Still for that read-out and setting: next, `O=C(CCCN1CC=C(n2c(=O)[nH]c3ccccc32)CC1)c1ccc(F)cc1`: 18.8 µM; `C[C@@H]1O[C@@H](O[C@@H]2C=C3CC[C@@H]4[C@H](CC[C@]5(C)[C@@H](c6ccc(=O)oc6)CC[C@]45O)[C@@]3(C)CC2)[C@H](O)[C@H](O)[C@H]1O`: 0.0119 µM; `CCCCCCCCCCCCCC[N+](C)(C)C.[Br-]`: 26.6 µM. On the same count and under the same terms, for `Oc1c(Cl)cc(Cl)c(Cl)c1Cc1c(O)c(Cl)cc(Cl)c1Cl` the value was 16.8 µM. With `CC[n+]1c(-c2ccccc2)c2cc(N)ccc2c2ccc(N)cc21.[Br-]`, in the experiment on GUMC-403 [2] (setting [4]), the “AC50 for reduction of cell viability” value came to 9.44 µM. `CCN1C(=CC=Cc2ccc3ccccc3[n+]2CC)C=Cc2ccccc21.[I-]`: the “AC50 for reduction of cell viability” value with GUMC-403 [2] (setting [4]) is 2.66 µM. Same read-out and setting: next, `CCCCCNC(=N)N/N=C/c1c[nH]c2ccc(OC)cc12`: 18.8 µM; `C[C@@]12C(=O)OC(=O)[C@]1(C)C1CCC2O1`: 3.35 µM.

For the compound `C[C@H]1O[C@@H](O[C@H]2[C@@H](O)C[C@H](O[C@H]3[C@@H](O)C[C@H](O[C@H]4CC[C@@]5(C)[C@H](CC[C@@H]6[C@@H]5CC[C@]5(C)[C@@H](C7=CC(=O)OC7)CC[C@]65O)C4)O[C@@H]3C)O[C@@H]2C)C[C@H](O)[C@@H]1O`, the “AC50 for reduction of cell viability” value with GUMC-403 [2] (setting [4]) worked out at 0.237 µM. On to `COC(=O)Nc1nc2cc(C(=O)c3cccs3)ccc2[nH]1`, for which the viability with GUMC-403 [1] came out at 105.

`Cc1c[nH]c(-c2cnc(NCCNc3ccc(C#N)cn3)nc2-c2ccc(Cl)cc2Cl)n1` yielded a viability in the experiment on GUMC-403 [1] of 77.1. In the case of `CO[C@H]1C[C@@H]2CC[C@@H](C)[C@@](O)(O2)C(=O)C(=O)N2CCCC[C@H]2C(=O)O[C@H]([C@H](C)C[C@@H]2CC[C@@H](OC(=O)C(C)(CO)CO)[C@H](OC)C2)CC(=O)[C@H](C)/C=C(\C)[C@@H](O)[C@@H](OC)C(=O)[C@H](C)C[C@H](C)/C=C/C=C/C=C/1C`, in the experiment with GUMC-403 [1], the viability came out at 110. The same measure, in the same setting: next, `CN1CCC[C@@H]1CCO[C@](C)(c1ccccc1)c1ccc(Cl)cc1`: 103. In the experiment on GUMC-403 [1], `C[C@H]1CC2C3CCC/4=C/C(=O)/C=C\[C@]4(C)[C@@]3(F)[C@@H](O)C[C@]2(C)[C@@]1(O)C(=O)CO` (stereo not given in full) registered a viability of 127.
